Experimental data taken from patent US11471534B2, “Chitosan-pluronic complex and nano-carrier comprising same” (KOREA INSTITUTE OF CERAMIC ENGINEERING AND TECHNOLOGY, priority 2017, dated 2022).

Assay: Distribution of model drug (Nile red) in skin, fluorescence microscope on cryo-sections
Format: in vitro ADME, human
Settings: after the skin penetration experiment, 20 μm cryo-sections
Description: After completing a skin penetration experiment of the drugs, skins were fixed in a […] neutral formalin solution for 12 hours or more to confirm how the drugs were distributed in the skins. After mixing the fixed skins with an OCT compound, allowing OCT compound-mixed skins to be frozen in liquid nitrogen of −20° C. or less, and cutting the frozen skins to a thickness of 20 μm through a cryo-section device (−25° C.), sampling was made by attaching the cut skins to glass. After washing samples with deionized water and observing distribution statuses of a model drug (Nile red) in the skins with a fluorescence microscope, observation results are illustrated in FIG. 10.

For CCN(CC)c1ccc2nc3c4ccccc4c(=O)cc-3oc2c1 [Nile red], the “distribution of model drug (Nile red) in the skin” value was “collected in stratum corneum”.
